# From patent US7902195B2, “Pyridine [3,4-b] pyrazinones” (Pharmacia & Upjohn Company LLC, priority 2006, dated 2011)
# Target: T1, PDE5 enzyme isolated from human platelets (Homo sapiens, UniProt O76074)
# T1 construct: The PDE5 enzyme for use in the assay can be obtained from human platelets; from tissue; host or cells: human platelets
# Test: Alternative human platelet PDE5 enzyme inhibition scintillation proximity assay (Method 2)
# Type: biochemical
# Details: cGMP substrate 50 nM, 60 minutes at room temperature
# Excerpt: The IC50 of a test compound can be measured using an in vitro assay using PDE5 enzyme isolated from human platelets. The IC50 is the concentration of test compound required to inhibit the hydrolysis of cGMP to GMP by the PDE5 enzyme by 50% relative to the activity of uninhibited controls. The PDE5 enzyme for use in the assay can be obtained from human platelets by appropriate modification of the method of Thompson, W J et al.; Biochemistry 18(23), 5228-5237, 1979, as described by Ballard S A et al.; J. Urology 159(6), 2164-2171, 1998. The PDE5 enzyme so obtained can be used to catalyze the hydrolysis of [^3H]cGMP (Amersham Biosciences) to 5′ nucleotide [^3H]GMP. The [^3H]GMP binds to yttrium silicate SPA beads (Amersham Biosciences) and is detected by scintillation counting. More specifically, the effect of a test compound at different concentrations can be evaluated in the assay by contacting the compound with a fixed amount of PDE5 enzyme in the presence of substrate (cGMP […] in a 3:1 ratio unlabelled to [^3H]-labeled). Scintillation counting can be used as described above to determine relative PDE5 enzyme activity. The inhibition of PDE5 enzyme activity is then calculated relative to total PDE5 enzyme activity of uninhibited controls.
# Method 2: Alternative Human Platelet PDE5 Enzyme Inhibition Scintillation Proximity Assay
# PDE5 IC50 Assay: 96-Well Microtiter Plate Format
# Buffer A: 20 mM Tris-HCl, 5 mM MgCl2, pH 7.4
# Buffer B: 2 mg/ml BSA in Buffer A (enzyme buffer)
# cGMP substrate: Final concentration of 50 nM in assay
# The amount of ^3H-labeled substrate added depends upon the specific activity of [^3H]cGMP, and it is diluted in Buffer A.
# PDE enzyme: Prepared in Buffer B. The dilution factor is determined by enzyme activity.
# SPA beads: 4 mg/ml suspension prepared in dH2O.
# Stocks of standard and test compound are prepared at 2 mM in 100% DMSO. The test compound is serially diluted in a dilution plate using an 8-point ⅕ log dilution format such that the starting concentration in the assay is 2 μM for an initial IC50 screen. 27 μl of Buffer A are added to the wells of the assay plates. From the dilution plate, 3 μl of diluted compound is delivered in duplicate or 3 μl of 100% DMSO (for positive and negative controls) are added. 30 μl of enzyme are added. For the negative control wells, Buffer B is substituted in place of the enzyme. 30 μl of labeled substrate are added to all wells.
# After incubating for 60 minutes at room temperature, the reaction is stopped with the addition of 30 μl of the yttrium silicate beads. These beads are dense and require constant agitation while being added to the plate. The plates are sealed and shaken on a plate shaker for fifteen minutes to allow the beads to bind the GMP product.
# After allowing the beads to settle for 30 minutes, plates are read on a NXT TopCount scintillation counter and the data are analyzed as follows. Percent inhibition values are calculated using the means of the 0% and 100% controls on each plate. The estimates of the 4-parameters of the logistic, sigmoid dose-response model are then calculated using the well-level percent inhibition value for the compound. The formula for the four-parameter logistic model may be expressed as Y=((a−d)/(1+(X/c)^b))+d, where Y is the response, X is the concentration, a is the lower asymptote (minimum response), d is the upper asymptote (maximum response), c is the model IC50 (in the same units as X), and b is the slope (as described in De Lean, A., P. J. Munson, and D. Rodbard (“Simultaneous analysis of families of sigmoidal curves: application to bioassay, radioligand assay, and physiological dose-response curves.” Am. J. Physiol. 235(2): E97-E102, 1978). These estimates are used to calculate the concentration that corresponds to 50% inhibition.
# Compounds were tested in accordance with Method 2 above yielding the IC50 values described in Table C.
row,Compound,IC50
1,"CCCOCCn1c(=O)c(N2CCN(CCO)CC2)nc2cnc(-c3cccc(F)c3F)cc21 [Example 26, 7-(2,3-difluorophenyl)-3-(4-(2-hydroxyethyl)piperazin-1-yl)-1-(2-propoxyethyl)pyrido[3,4-b]pyrazin-2(1H)-one]",47.1 nM
2,"CCCOCCn1c(=O)c(N2CCN(CCO)CC2)nc2cnc(-c3ccc(C)cc3)cc21 [Example 27, 3-(4-(2-hydroxyethyl)piperazin-1-yl)-1-(2-propoxyethyl)-7-p-tolylpyrido[3,4-b]pyrazin-2(1H)-one]",9.31 nM
3,"CCCOCCn1c(=O)c(N2CCN(CCO)CC2)nc2cnc(-c3ccc(C(C)=O)s3)cc21 [Example 28, 7-(5-acetylthiophen-2-yl)-3-(4-(2-hydroxyethyl)piperazin-1-yl)-1-(2-propoxyethyl)pyrido[3,4-b]pyrazin-2(1H)-one]",43.1 nM
4,"CCCOCCn1c(=O)c(N2CCN(CCO)CC2)nc2cnc(-c3cccc(OC)c3)cc21 [Example 29, 3-(4-(2-hydroxyethyl)piperazin-1-yl)-7-(3-methoxyphenyl)-1-(2-propoxyethyl)pyrido[3,4-b]pyrazin-2(1H)-one]",3.07 nM
5,"CCCOCCn1c(=O)c(N2CCN(CCO)CC2)nc2cnc(-c3cccc(CO)c3)cc21 [Example 30, 3-(4-(2-hydroxyethyl)piperazin-1-yl)-7-(3-(hydroxymethyl)phenyl)-1-(2-propoxyethyl)pyrido[3,4-b]pyrazin-2(1H)-one]",311 nM
6,"CCCOCCn1c(=O)c(N2CCN(CCO)CC2)nc2cnc(-c3cccnc3)cc21 [Example 31, 3-(4-(2-hydroxyethyl)piperazin-1-yl)-1-(2-propoxyethyl)-7-(pyridin-3-yl)pyrido[3,4-b]pyrazin-2(1H)-one]",45.8 nM
7,"CCCOCCn1c(=O)c(N2CCN(CCO)CC2)nc2cnc(-c3cccc(OCC)c3)cc21 [Example 32, 7-(3-ethoxyphenyl)-3-(4-(2-hydroxyethyl)piperazin-1-yl)-1-(2-propoxyethyl)pyrido[3,4-b]pyrazin-2(1H)-one]",158 nM
8,"CCCOCCn1c(=O)c(N2CCN(CCO)CC2)nc2cnc(-c3ccc(OC)c(F)c3)cc21 [Example 33, 7-(3-fluoro-4-methoxyphenyl)-3-(4-(2-hydroxyethyl)piperazin-1-yl)-1-(2-propoxyethyl)pyrido[3,4-b]pyrazin-2(1H)-one]",13.6 nM
9,"CCCOCCn1c(=O)c(N2CCN(CCO)CC2)nc2cnc(-c3cc(Cl)ccc3F)cc21 [Example 34, 7-(5-chloro-2-fluorophenyl)-3-(4-(2-hydroxyethyl)piperazin-1-yl)-1-(2-propoxyethyl)pyrido[3,4-b]pyrazin-2(1H)-one]",12.6 nM
10,"CCCOCCn1c(=O)c(N2CCN(CCO)CC2)nc2cnc(-c3ccc(OC)c(C)c3)cc21 [Example 35, 3-(4-(2-hydroxyethyl)piperazin-1-yl)-7-(4-methoxy-3-methylphenyl)-1-(2-propoxyethyl)pyrido[3,4-b]pyrazin-2(1H)-one]",1.69 nM
11,"CCCOCCn1c(=O)c(N2CCN(CCO)CC2)nc2cnc(-c3cccc(C)c3)cc21 [Example 36, 3-(4-(2-hydroxyethyl)piperazin-1-yl)-1-(2-propoxyethyl)-7-m-tolylpyrido[3,4-b]pyrazin-2(1H)-one]",423 nM
12,"CCCOCCn1c(=O)c(N2CCN(CCO)CC2)nc2cnc(-c3ccccc3O)cc21 [Example 37, 3-(4-(2-hydroxyethyl)piperazin-1-yl)-7-(2-hydroxyphenyl)-1-(2-propoxyethyl)pyrido[3,4-b]pyrazin-2(1H)-one]",18.1 nM
13,"CCCOCCn1c(=O)c(N2CCN(CCO)CC2)nc2cnc(-c3ccccc3F)cc21 [Example 38, 7-(2-fluorophenyl)-3-(4-(2-hydroxyethyl)piperazin-1-yl)-1-(2-propoxyethyl)pyrido[3,4-b]pyrazin-2(1H)-one]",42.2 nM
14,"CCCOCCn1c(=O)c(N2CCCN(CCCO)CC2)nc2cnc(-c3ccc(OC)nc3)cc21 [Example 48, 3-(4-(3-hydroxypropyl)-1,4-diazepan-1-yl)-7-(6-methoxypyridin-3-yl)-1-(2-propoxyethyl)pyrido[3,4-b]pyrazin-2(1H)-one]",1.07 nM

# These reach a lower IC50. Values come first.
row,IC50,Compound
1,0.217 nM,"CCCOCCn1c(=O)c(N2CCN(CC)CC2)nc2cnc(-c3ccc(OC)nc3)cc21 [Example 39, 3-(4-ethylpiperazin-1-yl)-7-(6-methoxypyridin-3-yl)-1-(2-propoxyethyl)pyrido[3,4-b]pyrazin-2(1H)-one]"
2,0.296 nM,"CCCOCCn1c(=O)c(N2CCCC(C(N)=O)C2)nc2cnc(-c3ccc(OC)nc3)cc21 (centres unmarked) [Example 40, 1-(1,2-dihydro-7-(6-methoxypyridin-3-yl)-2-oxo-1-(2-propoxyethyl)pyrido[3,4-b]pyrazin-3-yl)piperidine-3-carboxamide]"
3,0.249 nM,"CCCOCCn1c(=O)c(N2CCC(C(N)=O)CC2)nc2cnc(-c3ccc(OC)nc3)cc21 [Example 41, 1-(1,2-dihydro-7-(6-methoxypyridin-3-yl)-2-oxo-1-(2-propoxyethyl)pyrido[3,4-b]pyrazin-3-yl)piperidine-4-carboxamide]"
4,0.421 nM,"CCCOCCn1c(=O)c(N2CCC(O)C2)nc2cnc(-c3ccc(OC)nc3)cc21 (centres unmarked) [Example 42, 3-(3-hydroxypyrrolidin-1-yl)-7-(6-methoxypyridin-3-yl)-1-(2-Propoxyethyl)pyrido[3,4-b]pyrazin-2(1H)-one]"
5,0.208 nM,"CCCOCCn1c(=O)c(N2CCN(CC(C)(C)O)CC2)nc2cnc(-c3ccc(OC)nc3)cc21 [Example 43, 3-(4-(2-hydroxy-2-methylpropyl)piperazin-1-yl)-7-(6-methoxypyridin-3-yl)-1-(2-propoxyethyl)pyrido[3,4-b]pyrazin-2(1H)-one]"
6,0.33 nM,"CCCOCCn1c(=O)c(N2CCN([C@@H](C)[C@@H](C)O)CC2)nc2cnc(-c3ccc(OC)nc3)cc21 [Example 44, 3-(4-((2S,3R)-3-hydroxybutan-2-yl)piperazin-1-yl)-7-(6-methoxypyridin-3-yl)-1-(2-propoxyethyl)pyrido[3,4-b]pyrazin-2(1H)-one]"
7,0.295 nM,"CCCOCCn1c(=O)c(N2CCN([C@H](C)[C@@H](C)O)CC2)nc2cnc(-c3ccc(OC)nc3)cc21 [Example 45, 3-(4-((2R,3R)-3-hydroxybutan-2-yl)piperazin-1-yl)-7-(6-methoxypyridin-3-yl)-1-(2-propoxyethyl)pyrido[3,4-b]pyrazin-2(1H)-one]"
8,0.306 nM,"CCCOCCn1c(=O)c(N2CCN(C[C@H](C)O)CC2)nc2cnc(-c3ccc(OC)nc3)cc21 [Example 46, 3-(4-((S)-2-hydroxypropyl)piperazin-1-yl)-7-(6-methoxypyridin-3-yl)-1-(2-propoxyethyl)pyrido[3,4-b]pyrazin-2(1H)-one]"
9,0.226 nM,"CCCOCCn1c(=O)c(N2CCN(C[C@@H](C)O)CC2)nc2cnc(-c3ccc(OC)nc3)cc21 [Example 47, 3-(4-((R)-2-hydroxypropyl)piperazin-1-yl)-7-(6-methoxypyridin-3-yl)-1-(2-propoxyethyl)pyrido[3,4-b]pyrazin-2(1H)-one]"
